Test results published in publication PMC10846046, “The mechanism of action of auranofin analogs in B. cenocepacia revealed by chemogenomic profiling” (Microbiology Spectrum, 2024).

Legend:
[1] = molecular target: T1, TrxB (thioredoxin reductase) (Burkholderia cenocepacia, UniProt B4EBR9); test: DTNB reduction, absorbance at […] nm; assay type: biochemical
T1 construct: full gene in pET24b+, C-terminal 6xHis tag kept, E. coli BL21(DE3); Ni-NTA and size exclusion

[2] = molecular target: T2, GOR (glutathione reductase) (Burkholderia cenocepacia, UniProt B4E8M8); test: NADPH consumption, absorbance at […] nm; assay type: biochemical; settings: GSSG as electron acceptor
T2 construct: full gene in pET-22+, C-terminal 6xHis tag kept, E. coli BL21(DE3)-Gold; purified as TrxB
T2 sequence (B4E8M8 1-451): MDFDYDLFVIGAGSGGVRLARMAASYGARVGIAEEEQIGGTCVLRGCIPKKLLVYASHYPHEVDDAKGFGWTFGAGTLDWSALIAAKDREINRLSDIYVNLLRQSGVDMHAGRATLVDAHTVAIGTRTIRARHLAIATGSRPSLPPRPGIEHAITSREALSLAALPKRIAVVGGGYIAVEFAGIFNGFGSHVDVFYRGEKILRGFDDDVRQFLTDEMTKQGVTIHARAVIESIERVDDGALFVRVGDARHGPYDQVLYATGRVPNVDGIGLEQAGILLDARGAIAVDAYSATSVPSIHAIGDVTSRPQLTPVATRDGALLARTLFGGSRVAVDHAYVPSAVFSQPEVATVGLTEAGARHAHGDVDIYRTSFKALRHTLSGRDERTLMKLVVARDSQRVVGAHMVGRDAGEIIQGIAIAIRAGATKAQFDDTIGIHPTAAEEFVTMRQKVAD

T1 sequence (B4EBR9 1-320): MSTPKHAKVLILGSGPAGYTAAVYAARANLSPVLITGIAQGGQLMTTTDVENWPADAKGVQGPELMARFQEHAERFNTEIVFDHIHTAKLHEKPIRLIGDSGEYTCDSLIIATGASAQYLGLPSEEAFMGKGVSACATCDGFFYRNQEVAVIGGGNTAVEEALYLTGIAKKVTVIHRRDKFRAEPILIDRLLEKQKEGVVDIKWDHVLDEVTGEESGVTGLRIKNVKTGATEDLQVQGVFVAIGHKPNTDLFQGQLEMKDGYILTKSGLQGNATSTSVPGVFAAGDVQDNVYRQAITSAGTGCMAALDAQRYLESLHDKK

| Compound | DTNB reduction, absorbance at 412 nm ([1]; NADPH as electron source) | NADPH consumption, absorbance at 340 nm [2] | DTNB reduction, absorbance at 412 nm ([1]; DTNB as electron acceptor) |
| --- | --- | --- | --- |
| O=C(O)c1cc(SSc2ccc([N+](=O)[O-])c(C(=O)O)c2)ccc1[N+](=O)[O-] [DTNB] | in the presence of substrate DTNB is reduced to TNB, with NADPH as a source | – | – |
| NC(=O)C1=CN([C@@H]2O[C@H](COP(=O)(O)OP(=O)(O)OC[C@H]3O[C@@H](n4cnc5c(N)ncnc54)[C@H](OP(=O)(O)O)[C@@H]3O)[C@@H](O)[C@H]2O)C=CC1 [NADPH] | – | oxidized glutathione is reduced to reduced glutathione, with NADPH as a source of electrons | in the presence of substrate DTNB is reduced to TNB, with NADPH as a source |
